Numbered stars: 1 amine (or outer) side, 2 acyl side, 3 side chain; on linkers, the order of the positions; unused ones are H or OH. Bridge positions count the residues as written; N and C are the ends. Square brackets hold non-standard residues; d marks the D form. Side chains are listed from the residue outwards. Peptide text beside a SMILES is read from it. * marks the point of attachment. C18 diacid = O=C(O)CCCCCCCCCCCCCCCCC(=O)*; γGlu = O=C(O)[C@H](CCC(=O)[*:2])N[*:1]; αMeF = C[C@](N)(Cc1ccccc1)C(=O)O; Aib = CC(C)(N)C(=O)O
Legend:
lean rats = assay: Rat acute food intake study; assay type: in vivo; settings: lean male Sprague Dawley rats, 20 nmol/kg subcutaneously
Method in brief: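 Male Sprague Dawley rats (n=7/group), fasted 6 h, received 20 nmol/kg test compound or 60 nmol/kg pramlintide subcutaneously 30 min before food return at dark onset. Food intake recorded automatically in home cages over 3 days, binned hourly and analysed as cumulative dark-period intake; body weight taken daily.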

[1] = target: T1, human amylin receptor (calcitonin receptor co-expressed with receptor activity modifying protein, RAMP3) (hAMYR3) (Homo sapiens, UniProt O60896+P30988); assay: cAMP production in 1321N1 cells with stable recombinant expression of human amylin receptor (hAMYR3); assay type: cell-based; settings: for Ratio (selectivity hAMYR vs hCTR, ratio of EC50 values at the two receptors): EC50 hCTR / EC50 hAMYR3; for EC50: cAMP, 1321N1 cells, assay buffer with 0.1% BSA, read-out: EC50 (pM) hAMYR3
T1 construct: expressed in transfected cells
T1 sequence (P30988 25-474): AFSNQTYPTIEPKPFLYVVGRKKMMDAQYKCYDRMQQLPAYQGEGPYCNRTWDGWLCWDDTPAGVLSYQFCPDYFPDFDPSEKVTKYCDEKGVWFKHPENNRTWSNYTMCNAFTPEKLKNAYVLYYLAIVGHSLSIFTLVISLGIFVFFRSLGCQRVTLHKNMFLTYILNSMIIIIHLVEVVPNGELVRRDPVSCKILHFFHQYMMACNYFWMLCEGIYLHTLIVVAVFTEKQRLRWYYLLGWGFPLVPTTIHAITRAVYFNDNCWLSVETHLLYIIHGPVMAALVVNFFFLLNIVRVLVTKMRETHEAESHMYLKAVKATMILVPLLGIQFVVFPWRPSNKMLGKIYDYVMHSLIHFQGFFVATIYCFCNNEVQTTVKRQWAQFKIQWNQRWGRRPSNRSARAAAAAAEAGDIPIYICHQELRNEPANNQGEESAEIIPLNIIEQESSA
T1 sequence (O60896 24-148 partner): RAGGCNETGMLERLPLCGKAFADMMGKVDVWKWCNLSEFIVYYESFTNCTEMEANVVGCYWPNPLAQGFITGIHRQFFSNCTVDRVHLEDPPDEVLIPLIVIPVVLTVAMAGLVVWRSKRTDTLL
Method in brief: (§1)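 Receptor-expressing cells (human receptors in 1321N1, rat receptors in HEK) incubated 30 min at room temperature with peptide in HBSS/HEPES pH 7.4, 0.1% BSA, 0.5 mM IBMX. cAMP read by HTRF; EC50 from 4-parameter fit as % of maximal amylin or calcitonin response.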

[2] = target: T2, human calcitonin receptor (hCTR) (Homo sapiens, UniProt P30988); assay: cAMP production in 1321N1 cells with stable recombinant expression of human calcitonin receptor (hCTR); assay type: cell-based; settings: cAMP, 1321N1 cells, assay buffer with 0.1% BSA; read-out: EC50 (pM) hCTR
T2 construct: expressed in transfected cells
T2 sequence (P30988 25-474): T1 sequence (P30988 25-474)
Method in brief: as §1

[3] = Thioflavin T fibrillation assay; assay type: physicochemical; settings: ThT fibrillation assay; peptide 1 mg/mL in 25 mM sodium acetate buffer pH 4.0; 6 days at 37 °C with shaking; >144 h = no increase
Method in brief: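 Peptides at 1 mg/mL in 25 mM sodium acetate pH 4.0 with ThT (from 0.25 mM stock), incubated 6 days at 37 °C with intermittent orbital shaking at 500–750 rpm. Fluorescence (ex 444/em 480 nm) read every 30 min; value is average time to a rise in baseline-corrected signal.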

| Structure (SMILES) | Cummulative food intake (% vehicle treated intake) At 12 h (lean rats) [% vehicle treated intake] | Cummulative food intake (% vehicle treated intake) At 24 h (lean rats) [% vehicle treated intake] | Cummulative food intake (% vehicle treated intake) At 48 h (lean rats) [% vehicle treated intake] | Ratio (selectivity hAMYR vs hCTR, ratio of EC50 values at the two receptors) [1] | EC50 [1] [pM] | EC50 [2] [pM] | Time taken to detect increase in fluorescence intensity [3] [h] |
| --- | --- | --- | --- | --- | --- | --- | --- |
| CC[C@H](C)[C@H](NC(=O)[C@@H]1CCCN1C(=O)CNC(=O)[C@](C)(Cc1ccccc1)NC(=O)[C@H](CC(N)=O)NC(=O)[C@H](CC(N)=O)NC(=O)[C@H](CO)NC(=O)[C@H](CO)NC(=O)[C@H](Cc1c[nH]cn1)NC(=O)[C@H](CCCNC(=N)N)NC(=O)[C@H](CC(C)C)NC(=O)[C@H](Cc1ccccc1)NC(=O)[C@H](CCC(=O)O)NC(=O)[C@H](C)NC(=O)[C@H](CC(C)C)NC(=O)[C@H](CCCNC(=N)N)NC(=O)[C@H](CCC(N)=O)NC(=O)[C@@H](NC(=O)[C@H](C)NC(=O)[C@@H]1CSSC[C@H](NC(=O)CC[C@H](NC(=O)CCCCCCCCCCCCCCCCC(=O)O)C(=O)O)C(=O)N[C@@H](CC(N)=O)C(=O)N[C@@H]([C@@H](C)O)C(=O)N[C@@H](C)C(=O)N[C@@H]([C@@H](C)O)C(=O)N1)[C@@H](C)O)C(=O)N[C@@H](CC(C)C)C(=O)N1CCC[C@H]1C(=O)N1CCC[C@H]1C(=O)N[C@H](C(=O)N[C@@H](CC(N)=O)C(=O)N[C@H](C(=O)NCC(=O)N[C@@H](CO)C(=O)N[C@@H](CC(N)=O)C(=O)N[C@H](C(=O)N[C@@H](Cc1ccc(O)cc1)C(N)=O)[C@@H](C)O)C(C)C)[C@@H](C)O [Peptide 10, C18diacid-γE-[CNTATC]ATQRLAEFLRHSSNN(αMePhe)GPILPPTNVGSNTY-amide] ({C18 diacid-γGlu}-CNTATCATQRLAEFLRHSSNN[αMeF]GPILPPTNVGSNTY-NH2; disulfide 1-6) | 18.8 | 24.6 | 46.6 | 15 | 183 | 2730 | >144 |
| CC[C@H](C)[C@H](NC(=O)[C@@H]1CCCN1C(=O)CNC(=O)[C@H](Cc1ccccc1)NC(=O)[C@H](CC(N)=O)NC(=O)C(C)(C)NC(=O)[C@H](CO)NC(=O)[C@H](CO)NC(=O)[C@H](Cc1c[nH]cn1)NC(=O)[C@@H](NC(=O)[C@H](CC(C)C)NC(=O)[C@H](Cc1ccccc1)NC(=O)[C@H](CC(N)=O)NC(=O)[C@H](C)NC(=O)[C@H](CC(C)C)NC(=O)[C@H](CCCNC(=N)N)NC(=O)[C@H](CCC(N)=O)NC(=O)[C@@H](NC(=O)[C@H](C)NC(=O)[C@@H]1CSSC[C@H](NC(=O)[C@H](CCCCN)NC(=O)[C@@H](N)CCCCNC(=O)CC[C@H](NC(=O)CCCCCCCCCCCCCCCCC(=O)O)C(=O)O)C(=O)N[C@@H](CC(N)=O)C(=O)N[C@@H]([C@@H](C)O)C(=O)N[C@@H](C)C(=O)N[C@@H]([C@@H](C)O)C(=O)N1)[C@@H](C)O)C(C)C)C(=O)N[C@@H](CC(C)C)C(=O)N1CCC[C@H]1C(=O)N1CCC[C@H]1C(=O)N[C@H](C(=O)N[C@@H](Cc1c[nH]cn1)C(=O)N[C@H](C(=O)NCC(=O)N[C@@H](CO)C(=O)N[C@@H](CC(N)=O)C(=O)N[C@H](C(=O)N[C@@H](Cc1ccc(O)cc1)C(N)=O)[C@@H](C)O)C(C)C)[C@@H](C)O [Peptide 40, K(γE-C18diacid)K[CNTATC]ATQRLANFLVHSS(Aib)NFGPILPPTHVGSNTY-amide] (H-K([γGlu-C18 diacid])KCNTATCATQRLANFLVHSS[Aib]NFGPILPPTHVGSNTY-NH2; disulfide 3-8) | 60.7 | 51.8 | 72.4 | 15 | 228 | 3330 | >144 |
